Literature values, collected in patent US8198305B2, “1,2-benzisoxazol-3-yl compounds” (Concert Pharmaceuticals Inc., priority 2007, dated 2012).
Read-outs that look alike come from different tables or passages of the source.

Details: phase III clinical trial

In the case of `COc1cc(C(C)=O)ccc1OCCCN1CCC(c2noc3cc(F)ccc23)CC1` [iloperidone, 1-[4-[3-[4-(6-fluoro-1,2-benzisoxazol-3-yl)piperidin-1-yl]propoxy]-3-methoxyphenyl]ethanone], the QTc prolongation (good metabolizers of iloperidone) is listed as 10.4 ms and the QTc prolongation (poor metabolizers of iloperidone) is listed as 15.0 ms.
